The source of these data is ChEMBL document CHEMBL6177991, “Discovery of P11-2: A Potent First-in-Class MNK1-Targeting PROTAC Degrader for the Treatment of Cancer” (J Med Chem, 2025).

Each structure is given as a SMILES string.

In assay [1] the test system is MV4-11. Kind of assay: Effect on GSPT1 expression in human MV4-11 cells at 10 to 1000 nM incubated for 24 hrs by immunoblot analysis. Type of assay: functional, cell-based. The conditions noted are these: dose 10-1000 nM.
The subject of assay [2] is MV4-11. The assay can be described thus: Antitumor activity against human MV4-11 cells xenografted in nude female NSG mouse assessed as tumor growth inhibition at 20 mg/kg, ip qd administrated for 16 days by caliper method relative to control. Type of assay: functional. The conditions noted are these: MV4-11, 384 h, time 16 day, read-out: TGI. (In general: A xenograft is tissue or cells of one species grown in another, often human tumour cells in immunodeficient mice.)

For `O=C1CCC(N2Cc3c(NC(=O)CCCCCC(=O)N4CCC(C(=O)Nc5ncc(-c6ccccc6)s5)CC4)cccc3C2=O)C(=O)N1` (configuration not stated), the Activity entry in the assay on MV4-11 [1] is “No effect”. Also, the inhibition in vivo at 20 mg/kg with MV4-11 [2] is above 90%.
